Results: patent US8740872B2, “Magnetically-targeted treatment for cardiac disorders” (The Board of Regents of the University of Oklahoma, priority 2010, dated 2014)

How the values were obtained:
neurons = settings: cited from earlier work
[1] = dog, in vivo
Procedure: In 6 other animals, 1.6 mg of NIPA-M (twice the amount of NIPA-M incorporated into one trans-coronary delivery) was directly injected into the left ventricle. NIPA-M used in these experiments was not incorporated into the hydrogel in order to simulate the greatest possible toxic challenge should the total NIPA-M dose be released instantly into the circulation from trans-coronary infusion. Serum samples before and 9.7±0.3 hours after NIPA-M injection were collected for paired analysis to assess renal and hepatic toxicity.

[2] = in vivo; cited from earlier work
[3] = system: neurotransmitter release at the synapse; settings: cited from earlier work

Row | Molecule | LD50% to kill 50% neurons (neurons) [mM] | BUN/creatine ratio [1] | alanine aminotransferase (ALT) [1] [U/L] | blood urea nitrogen (BUN) [1] [mmol/L] | serum creatinine [1] [mmol/L] | neuropathy following prolonged oral exposure [2] | duration of inhibition of neurotransmitter release at the synapse [3]
1 | C=CC(=O)NC(C)C [NIPA-M, N-isopropyl acrylamide monomer] | 5 to 8 | 17.6±1.7 | 41.3±8.7 | 16.2 ± 2.9 | 0.9 ± 0.1 | induce clinical (ataxia, rotorod performance deficits) and morphological (tibial nerve degeneration) signs of neuropathy | –
2 | botulinum toxin-A [BtA] | – | – | – | – | – | – | 3-6 months
